Here are results for one compound from patent publication US20120280189A1, “PERFLU[…] GASEOUS DIELECTRICS” (priority 2010, published 2012).

The data set relates to mice. The data set is described as follows: short-term inhalation test, acute toxicity. The format is in vivo. The conditions noted are these: mice exposed for four hours at 100,000 ppm in air.

On to `O=C(C(F)(F)C(F)(F)F)C(F)(C(F)(F)F)C(F)(F)F` [CF3CF2C(O)CF(CF3)2, 1,1,1,2,2,4,5,5,5-nonafluoro-4-trifluoromethyl-pentan-3-one], for which the acute toxicity entry was “low acute toxicity”.
